Assay results taken from ChEMBL document CHEMBL1135014, “Synthesis, radiolabeling and preliminary biological evaluation of radiolabeled 5-methyl-6-nitroquipazine, a potential radioligand for the serotonin transporter” (Bioorg Med Chem Lett, 2002).
pKd: −log10 of the molar value.

Assays:
[1] = target: Sodium-dependent serotonin transporter (Rattus norvegicus, UniProt P31652); experiment: Binding affinity of the radio labeled [3H]5-Methyl-6-nitroquipazine compound against Serotonin transporter in rat frontal cortex homogenates; format: tissue-based
Sequence of Sodium-dependent serotonin transporter (P31652 whole entry): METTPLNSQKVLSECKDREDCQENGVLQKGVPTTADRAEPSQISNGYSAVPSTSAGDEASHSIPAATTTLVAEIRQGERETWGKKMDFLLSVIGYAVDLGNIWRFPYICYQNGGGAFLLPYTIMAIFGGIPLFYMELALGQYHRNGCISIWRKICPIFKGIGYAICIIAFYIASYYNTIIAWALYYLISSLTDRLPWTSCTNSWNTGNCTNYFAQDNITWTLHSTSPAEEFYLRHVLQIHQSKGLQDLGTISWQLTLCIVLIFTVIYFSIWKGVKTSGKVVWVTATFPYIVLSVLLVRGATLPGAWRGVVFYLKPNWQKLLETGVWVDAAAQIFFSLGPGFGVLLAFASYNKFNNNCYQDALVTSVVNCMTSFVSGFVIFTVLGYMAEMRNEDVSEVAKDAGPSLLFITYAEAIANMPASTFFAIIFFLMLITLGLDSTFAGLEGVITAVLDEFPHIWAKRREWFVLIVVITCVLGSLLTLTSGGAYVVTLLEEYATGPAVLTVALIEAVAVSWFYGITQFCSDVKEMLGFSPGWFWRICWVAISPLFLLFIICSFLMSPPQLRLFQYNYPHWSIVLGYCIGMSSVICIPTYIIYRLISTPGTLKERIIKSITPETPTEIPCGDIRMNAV

[2] = target: Sodium-dependent serotonin transporter (Rattus norvegicus) (UniProt P31652); experiment: Enzyme kinetic constant, Bmax was evaluated against Serotonin transporter
Sequence of Sodium-dependent serotonin transporter (Rattus norvegicus) (P31652 whole entry): as above

Row | Structure (SMILES) | pKd [1] | Bmax [2] [fmol/mg]
1 | Cc1c([N+](=O)[O-])ccc2nc(N3CCNCC3)ccc12 | 10.29 | 1530
2 | O=[N+]([O-])c1ccc2nc(N3CCNCC3)ccc2c1 [6-NITROQUIPAZINE] | 10.29 | 1530
